# ChEMBL document CHEMBL1201861, “Genomics of Drug Sensitity in Cancer screening data, Wellcome Trust Sanger Institute”
# Experiments:
# Assay in all cases: cells
# COR-L23 = type: functional, cell-based; conditions: Homo sapiens;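 further: cell viability assay measuring how strongly compounds suppress growth of COR-L23 cells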
# Description: SANGER: Inhibition of human COR-L23 cell growth in a cell viability assay.
# G-402 = type: functional, cell-based; conditions: Homo sapiens
# Description: SANGER: Inhibition of human G-402 cell growth in a cell viability assay.
# GP5d = type: functional, cell-based; conditions: Homo sapiens;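 further: growth inhibition of human GP5d cells, read out with a cell viability assay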
# Description: SANGER: Inhibition of human GP5d cell growth in a cell viability assay.
# HCC1569 = type: functional, cell-based; conditions: Homo sapiens;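 further: growth inhibition of human HCC1569 cells, read out with a cell viability assay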
# Description: SANGER: Inhibition of human HCC1569 cell growth in a cell viability assay.
# HEC-1 = type: functional, cell-based; conditions: Homo sapiens;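 further: growth inhibition of the cell line, read out with a cell viability assay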
# Description: SANGER: Inhibition of human HEC-1 cell growth in a cell viability assay.
# HSC-3 = type: functional, cell-based; conditions: Homo sapiens
# Description: SANGER: Inhibition of human HSC-3 cell growth in a cell viability assay.
# HT-1376 = type: functional, cell-based; conditions: Homo sapiens
# Description: SANGER: Inhibition of human HT-1376 cell growth in a cell viability assay.
# HuO9 = type: functional, cell-based; conditions: Homo sapiens;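 further: growth inhibition of HuO9 cells, read out with a cell viability assay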
# Description: SANGER: Inhibition of human HuO9 cell growth in a cell viability assay.
# IGROV-1 = type: functional, cell-based; conditions: Homo sapiens;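 further: reduction of IGROV-1 cell growth, read out with a viability assay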
# Description: SANGER: Inhibition of human IGROV-1 cell growth in a cell viability assay.
# JEG-3 = type: functional, cell-based; conditions: Homo sapiens;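 further: growth inhibition of human JEG-3 cells, read out with a cell viability assay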
# Description: SANGER: Inhibition of human JEG-3 cell growth in a cell viability assay.
# Kasumi 1 = type: functional, cell-based; conditions: Homo sapiens;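 further: growth inhibition of human Kasumi-1 cells, read out by a cell viability assay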
# Description: SANGER: Inhibition of human KASUMI-1 cell growth in a cell viability assay.
# KYSE-410 = type: functional, cell-based; conditions: Homo sapiens;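 further: growth inhibition of KYSE-410 cells, measured through a cell viability readout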
# Description: SANGER: Inhibition of human KYSE-410 cell growth in a cell viability assay.
# KYSE-520 cell line = type: functional, cell-based; conditions: Homo sapiens;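 further: growth inhibition of human KYSE-520 cells, read out with a viability assay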
# Description: SANGER: Inhibition of human KYSE-520 cell growth in a cell viability assay.
# LK-2 = type: functional, cell-based; conditions: Homo sapiens;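 further: growth inhibition of LK-2 cells, read out with a viability assay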
# Description: SANGER: Inhibition of human LK-2 cell growth in a cell viability assay.
# LN-405 = type: functional, cell-based; conditions: Homo sapiens
# Description: SANGER: Inhibition of human LN-405 cell growth in a cell viability assay.
# LU-99A = type: functional, cell-based; conditions: Homo sapiens;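 further: growth inhibition of LU-99A cells, read out with a cell viability assay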
# Description: SANGER: Inhibition of human LU-99A cell growth in a cell viability assay.
# M14 = type: functional, cell-based; conditions: Homo sapiens;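 further: growth inhibition of M14 cells, read out with a cell viability assay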
# Description: SANGER: Inhibition of human M14 cell growth in a cell viability assay.
# MCF7 = type: functional, cell-based; conditions: Homo sapiens;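 further: growth inhibition of human MCF7 cells, read out with a cell viability assay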
# Description: SANGER: Inhibition of human MCF7 cell growth in a cell viability assay.
# MKN-28 = type: functional, cell-based; conditions: Homo sapiens;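 further: cell viability assay read-out, IC50 reflects suppression of growth of human MKN-28 cells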
# Description: SANGER: Inhibition of human MKN28 cell growth in a cell viability assay.
# NCI-H1437 = type: functional, cell-based; conditions: Homo sapiens;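 further: growth inhibition of human NCI-H1437 cells, read out by a cell viability assay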
# Description: SANGER: Inhibition of human NCI-H1437 cell growth in a cell viability assay.
# NCI-H2342 = type: functional, cell-based; conditions: Homo sapiens;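 further: growth inhibition of the cancer cell line, determined with a cell viability assay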
# Description: SANGER: Inhibition of human NCI-H2342 cell growth in a cell viability assay.
# NCI-H28 = type: functional, cell-based; conditions: Homo sapiens;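 further: growth inhibition of human NCI-H28 cells, read out as cell viability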
# Description: SANGER: Inhibition of human NCI-H28 cell growth in a cell viability assay.
# NCI-H441 = type: functional, cell-based; conditions: Homo sapiens;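 further: growth inhibition of NCI-H441 cells, read out with a cell viability assay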
# Description: SANGER: Inhibition of human NCI-H441 cell growth in a cell viability assay.
# NCI-H661 = type: functional, cell-based; conditions: Homo sapiens;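 further: cell viability assay read-out, IC50 being the concentration that inhibits growth of the cells by half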
# Description: SANGER: Inhibition of human NCI-H661 cell growth in a cell viability assay.
# OVCAR-3 = type: functional, cell-based; conditions: Homo sapiens;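 further: growth inhibition of human OVCAR-3 cells, determined by a cell viability assay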
# Description: SANGER: Inhibition of human OVCAR-3 cell growth in a cell viability assay.
# PA-1 = type: functional, cell-based; conditions: Homo sapiens;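 further: IC50 for suppression of PA-1 cell proliferation, determined with a cell viability read-out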
# Description: SANGER: Inhibition of human PA-1 cell growth in a cell viability assay.
# PANC-03-27 = type: functional, cell-based; conditions: Homo sapiens
# Description: SANGER: Inhibition of human PANC-03-27 cell growth in a cell viability assay.
# PC-14 = type: functional, cell-based; conditions: Homo sapiens;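 further: cell viability assay measuring inhibition of PC-14 cell growth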
# Description: SANGER: Inhibition of human PC-14 cell growth in a cell viability assay.
# PC-3 = type: functional, cell-based; conditions: Homo sapiens;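 further: cell viability assay measuring growth inhibition of PC-3 cells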
# Description: SANGER: Inhibition of human PC-3 cell growth in a cell viability assay.
# RPMI-2650 = type: functional, cell-based; conditions: Homo sapiens
# Description: SANGER: Inhibition of human RPMI-2650 cell growth in a cell viability assay.
# S-117 = type: functional, cell-based; conditions: Homo sapiens
# Description: SANGER: Inhibition of human S-117 cell growth in a cell viability assay.
# SAS = type: functional, cell-based; conditions: Homo sapiens;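 further: growth inhibition of SAS cells, read out with a cell viability assay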
# Description: SANGER: Inhibition of human SAS cell growth in a cell viability assay.
# SCC-4 = type: functional, cell-based; conditions: Homo sapiens;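 further: growth inhibition of human SCC-4 cells, read out as cell viability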
# Description: SANGER: Inhibition of human SCC-4 cell growth in a cell viability assay.
# SK-LU-1 = type: functional, cell-based; conditions: Homo sapiens;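 further: cell viability assay measuring growth inhibition of human SK-LU-1 cells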
# Description: SANGER: Inhibition of human SK-LU-1 cell growth in a cell viability assay.
# SK-MEL-28 = type: functional, cell-based; conditions: Homo sapiens;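 further: growth inhibition of human SK-MEL-28 cells, read out with a cell viability assay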
# Description: SANGER: Inhibition of human SK-MEL-28 cell growth in a cell viability assay.
# SK-MEL3 = type: functional, cell-based, SK-MEL-3; conditions: Homo sapiens;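 further: growth inhibition of human SK-MEL-3 cells, read out with a cell viability assay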
# Description: SANGER: Inhibition of human SK-MEL-3 cell growth in a cell viability assay.
# SW1990 = type: functional, cell-based; conditions: Homo sapiens;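 further: cell growth inhibition determined with a viability assay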
# Description: SANGER: Inhibition of human SW1990 cell growth in a cell viability assay.
# SW626 = type: functional, cell-based; conditions: Homo sapiens;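 further: growth inhibition of SW626 cells, measured with a cell viability assay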
# Description: SANGER: Inhibition of human SW626 cell growth in a cell viability assay.
# SW780 = type: functional, cell-based; conditions: Homo sapiens;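 further: growth inhibition of the cells, read out with a cell viability assay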
# Description: SANGER: Inhibition of human SW780 cell growth in a cell viability assay.
# SAOS-2 = type: functional, cell-based; conditions: Homo sapiens;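 further: growth inhibition of human Saos-2 cells determined by a cell viability assay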
# Description: SANGER: Inhibition of human Saos-2 cell growth in a cell viability assay.
# 5637 = type: functional, cell-based; conditions: Homo sapiens
# Description: SANGER: Inhibition of human 5637 cell growth in a cell viability assay.
# 639-V = type: functional, cell-based; conditions: Homo sapiens;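 further: growth inhibition of 639-V cells, read out with a cell viability assay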
# Description: SANGER: Inhibition of human 639-V cell growth in a cell viability assay.
# 647-V = type: functional, cell-based; conditions: Homo sapiens;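 further: growth inhibition of 647-V cells, read out with a cell viability assay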
# Description: SANGER: Inhibition of human 647-V cell growth in a cell viability assay.
# 8505C = type: functional, cell-based; conditions: Homo sapiens
# Description: SANGER: Inhibition of human 8505C cell growth in a cell viability assay.
# A-375 = type: functional, cell-based; conditions: Homo sapiens;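 further: growth inhibition of A375 cells, read out with a cell viability assay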
# Description: SANGER: Inhibition of human A375 cell growth in a cell viability assay.
# ACHN = type: functional, cell-based; conditions: Homo sapiens;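 further: cell viability read-out used to gauge how strongly growth of human ACHN cells is suppressed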
# Description: SANGER: Inhibition of human ACHN cell growth in a cell viability assay.
# CAL-12T = type: functional, cell-based, Homo sapiens; conditions: Homo sapiens, CAL-12T;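 further: growth inhibition of human CAL-12T cells, read out with a cell viability assay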
# Description: SANGER: Inhibition of human CAL-12T cell growth in a cell viability assay.
# CAMA-1 = type: functional, cell-based; conditions: Homo sapiens;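 further: growth inhibition of CAMA-1 cells, read out with a cell viability assay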
# Description: SANGER: Inhibition of human CAMA-1 cell growth in a cell viability assay.
# CHL-1 = type: functional, cell-based; conditions: Homo sapiens;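 further: cell growth inhibition, read out with a cell viability assay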
# Description: SANGER: Inhibition of human CHL-1 cell growth in a cell viability assay.
# COLO-678 = type: functional, cell-based; conditions: Homo sapiens
# Description: SANGER: Inhibition of human COLO-678 cell growth in a cell viability assay.
# COLO-680N = type: functional, cell-based; conditions: Homo sapiens;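 further: cell viability assay used to measure inhibition of COLO-680N cell growth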
# Description: SANGER: Inhibition of human COLO-680N cell growth in a cell viability assay.
smiles,measurement,setting,value
C[C@]1(c2nc3c(C(N)=O)cccc3[nH]2)CCCN1 [VELIPARIB],IC50,COR-L23,> 5000 nM
same,IC50,G-402,> 5000 nM
same,IC50,GP5d,> 5000 nM
same,IC50,HCC1569,> 5000 nM
same,IC50,HEC-1,> 5000 nM
same,IC50,HSC-3,> 5000 nM
same,IC50,HT-1376,> 5000 nM
same,IC50,HuO9,> 5000 nM
same,IC50,IGROV-1,> 5000 nM
same,IC50,JEG-3,> 5000 nM
same,IC50,Kasumi 1,> 5000 nM
same,IC50,KYSE-410,> 5000 nM
same,IC50,KYSE-520 cell line,> 5000 nM
same,IC50,LK-2,> 5000 nM
same,IC50,LN-405,> 5000 nM
same,IC50,LU-99A,> 5000 nM
same,IC50,M14,> 5000 nM
same,IC50,MCF7,> 5000 nM
same,IC50,MKN-28,> 5000 nM
same,IC50,NCI-H1437,> 5000 nM
same,IC50,NCI-H2342,> 5000 nM
same,IC50,NCI-H28,> 5000 nM
same,IC50,NCI-H441,> 5000 nM
same,IC50,NCI-H661,> 5000 nM
same,IC50,OVCAR-3,> 5000 nM
same,IC50,PA-1,> 5000 nM
same,IC50,PANC-03-27,> 5000 nM
same,IC50,PC-14,> 5000 nM
same,IC50,PC-3,> 5000 nM
same,IC50,RPMI-2650,> 5000 nM
same,IC50,S-117,> 5000 nM
same,IC50,SAS,> 5000 nM
same,IC50,SCC-4,> 5000 nM
same,IC50,SK-LU-1,> 5000 nM
same,IC50,SK-MEL-28,> 5000 nM
same,IC50,SK-MEL3,> 5000 nM
same,IC50,SW1990,> 5000 nM
same,IC50,SW626,> 5000 nM
same,IC50,SW780,> 5000 nM
same,IC50,SAOS-2,> 5000 nM
same,IC50,5637,> 5000 nM
same,IC50,639-V,> 5000 nM
same,IC50,647-V,> 5000 nM
same,IC50,8505C,> 5000 nM
same,IC50,A-375,> 5000 nM
same,IC50,ACHN,> 5000 nM
same,IC50,CAL-12T,> 5000 nM
same,IC50,CAMA-1,> 5000 nM
same,IC50,CHL-1,> 5000 nM
same,IC50,COLO-678,> 5000 nM
same,IC50,COLO-680N,> 5000 nM
CC[C@]1(O)C[C@@H]2CN(CCc3c([nH]c4ccccc34)[C@@](C(=O)OC)(c3cc4c(cc3OC)N(C)[C@H]3[C@@](O)(C(=O)OC)[C@H](OC(C)=O)[C@]5(CC)C=CCN6CC[C@]43[C@@H]65)C2)C1 [VINBLASTINE],IC50,COR-L23,3.62 nM
same,IC50,G-402,17.6 nM
same,IC50,GP5d,4.67 nM
same,IC50,HCC1569,92.3 nM
same,IC50,HEC-1,11.4 nM
same,IC50,HSC-3,4.39 nM
same,IC50,HT-1376,60.4 nM
same,IC50,HuO9,12.6 nM
same,IC50,IGROV-1,> 100 nM
same,IC50,JEG-3,12.5 nM
same,IC50,Kasumi 1,8.06 nM
same,IC50,KYSE-410,9.3 nM
same,IC50,KYSE-520 cell line,47.6 nM
same,IC50,LK-2,7.5 nM
same,IC50,LN-405,12.4 nM
same,IC50,LU-99A,20.8 nM
same,IC50,M14,3.19 nM
same,IC50,MCF7,31.6 nM
same,IC50,MKN-28,2.7 nM
same,IC50,NCI-H1437,7.76 nM
same,IC50,NCI-H2342,> 100 nM
same,IC50,NCI-H28,34.3 nM
same,IC50,NCI-H441,> 100 nM
same,IC50,NCI-H661,8.05 nM
same,IC50,OVCAR-3,46.9 nM
same,IC50,PA-1,8.09 nM
same,IC50,PANC-03-27,5.47 nM
same,IC50,PC-14,3.53 nM
same,IC50,PC-3,33.4 nM
same,IC50,RPMI-2650,26.6 nM
same,IC50,S-117,5.58 nM
same,IC50,SAS,28.1 nM
same,IC50,SCC-4,2.39 nM
same,IC50,SK-LU-1,18.7 nM
same,IC50,SK-MEL-28,17 nM
same,IC50,SK-MEL3,> 100 nM
same,IC50,SW1990,61.4 nM
same,IC50,SW626,23.2 nM
same,IC50,SW780,2.33 nM
same,IC50,SAOS-2,32.3 nM
same,IC50,5637,0.951 nM
same,IC50,639-V,5.61 nM
same,IC50,647-V,23 nM
same,IC50,8505C,3.11 nM
same,IC50,A-375,23.5 nM
same,IC50,ACHN,59 nM
same,IC50,CAL-12T,56 nM
same,IC50,CAMA-1,32 nM
same,IC50,CHL-1,12 nM
same,IC50,COLO-678,> 100 nM
same,IC50,COLO-680N,74.7 nM
